We go through ten compounds from paper PMC4994520 (European journal of medicinal chemistry, 2012).

Experiment [1] has as its target T1, human PDE5 (Homo sapiens, UniProt O76074). The experiment can be described thus: PDE5 inhibition, IMAP fluorescence polarization phosphodiesterase assay. In kind it is biochemical. The note with it: for inhibition at 10 µM: read-out: % PDE5 inhibition at 10 μM.
A further experiment addresses PDE1A (Homo sapiens, UniProt P54750). Description: PDE1A inhibition, IMAP fluorescence polarization assay. In kind it is biochemical. The conditions noted are these: for IC50: read-out: PDE1A inhibition IC50 μM.
The target in a further experiment is PDE2A (Homo sapiens, UniProt O00408). The experiment can be described thus: PDE2A inhibition, IMAP fluorescence polarization assay. It counts as biochemical. The note with it: for IC50: read-out: PDE2A inhibition IC50 μM.
The next experiment deals with PDE3A (Homo sapiens, UniProt Q14432). Description: PDE3A inhibition, IMAP fluorescence polarization assay. The conditions noted are these: for IC50: read-out: PDE3A inhibition IC50 μM. In kind it is biochemical.
The target of a further experiment is PDE3B (Homo sapiens, UniProt Q13370). The experiment can be described thus: PDE3B inhibition, IMAP fluorescence polarization assay. It counts as biochemical. The note with it: for IC50: read-out: PDE3B inhibition IC50 μM.
In a further experiment the target is PDE9A (Homo sapiens, UniProt O76083). The experiment can be described thus: PDE9A inhibition, IMAP fluorescence polarization assay. In kind it is biochemical.
The target in another experiment is PDE10A (Homo sapiens, UniProt Q9Y233). The experiment can be described thus: PDE10A inhibition, IMAP fluorescence polarization assay. In kind it is biochemical.
The target of a further experiment is PDE11A (Homo sapiens, UniProt Q9HCR9). The experiment can be described thus: PDE11A inhibition, IMAP fluorescence polarization assay. In kind it is biochemical. The note with it: for selectivity profile (selectivity index) PDE5 versus PDE11: cGMP as the substrate.
The target in experiment [2] is T1, human PDE5. The conditions noted are these: tadalafil and earlier analogues, Table 1; cited from earlier work.
[3] abbreviates: PDE10A inhibition IC50 μM, substrate cAMP.
Setting [4] is: PDE10A inhibition IC50 μM, substrate cGMP.
Where [5] appears, read: PDE11A inhibition IC50 μM, substrate cAMP.
Setting [6] is: PDE11A inhibition IC50 μM, substrate cGMP.

pIC50: −log10 of the molar value. Where two headings read alike, the source gives them in different places.

PDE2A, sequence (O00408 whole entry): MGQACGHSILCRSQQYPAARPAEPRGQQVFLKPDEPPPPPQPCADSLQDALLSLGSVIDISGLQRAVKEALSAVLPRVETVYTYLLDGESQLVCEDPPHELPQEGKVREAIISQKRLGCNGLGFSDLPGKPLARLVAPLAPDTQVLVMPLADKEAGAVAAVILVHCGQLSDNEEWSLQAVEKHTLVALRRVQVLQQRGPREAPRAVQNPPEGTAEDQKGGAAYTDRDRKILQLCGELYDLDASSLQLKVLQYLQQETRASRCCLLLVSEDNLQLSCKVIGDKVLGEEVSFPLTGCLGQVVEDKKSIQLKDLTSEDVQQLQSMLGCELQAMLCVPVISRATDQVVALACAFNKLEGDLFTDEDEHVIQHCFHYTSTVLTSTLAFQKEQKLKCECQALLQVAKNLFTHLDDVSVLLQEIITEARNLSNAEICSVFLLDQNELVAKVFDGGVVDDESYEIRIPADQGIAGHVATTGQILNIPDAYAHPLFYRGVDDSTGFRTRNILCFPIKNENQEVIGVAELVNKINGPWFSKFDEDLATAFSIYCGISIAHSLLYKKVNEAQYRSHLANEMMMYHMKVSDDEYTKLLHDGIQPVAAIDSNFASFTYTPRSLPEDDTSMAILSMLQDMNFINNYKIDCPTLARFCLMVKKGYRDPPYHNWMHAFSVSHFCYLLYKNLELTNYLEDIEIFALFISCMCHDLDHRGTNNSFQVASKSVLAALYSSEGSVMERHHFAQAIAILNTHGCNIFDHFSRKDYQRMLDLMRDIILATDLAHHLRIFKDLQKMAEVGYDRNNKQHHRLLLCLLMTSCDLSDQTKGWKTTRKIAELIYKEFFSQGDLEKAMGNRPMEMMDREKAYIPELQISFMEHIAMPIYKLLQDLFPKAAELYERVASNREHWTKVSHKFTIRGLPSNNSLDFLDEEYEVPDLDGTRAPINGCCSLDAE
PDE1A, sequence (P54750 whole entry): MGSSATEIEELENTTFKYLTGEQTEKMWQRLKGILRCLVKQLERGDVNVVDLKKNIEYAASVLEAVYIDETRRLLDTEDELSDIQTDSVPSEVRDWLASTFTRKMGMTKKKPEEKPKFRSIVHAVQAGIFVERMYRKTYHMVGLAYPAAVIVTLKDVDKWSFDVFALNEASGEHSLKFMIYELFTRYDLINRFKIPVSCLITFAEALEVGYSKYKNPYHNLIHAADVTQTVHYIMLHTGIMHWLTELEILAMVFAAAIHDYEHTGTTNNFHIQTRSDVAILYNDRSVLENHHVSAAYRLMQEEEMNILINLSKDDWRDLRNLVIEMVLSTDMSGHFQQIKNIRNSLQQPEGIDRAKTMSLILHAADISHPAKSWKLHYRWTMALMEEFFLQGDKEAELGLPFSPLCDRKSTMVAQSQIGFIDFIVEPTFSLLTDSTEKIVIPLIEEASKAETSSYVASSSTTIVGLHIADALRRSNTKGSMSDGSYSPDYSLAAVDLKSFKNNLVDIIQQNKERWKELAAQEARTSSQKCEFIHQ
PDE3B, sequence (Q13370 whole entry): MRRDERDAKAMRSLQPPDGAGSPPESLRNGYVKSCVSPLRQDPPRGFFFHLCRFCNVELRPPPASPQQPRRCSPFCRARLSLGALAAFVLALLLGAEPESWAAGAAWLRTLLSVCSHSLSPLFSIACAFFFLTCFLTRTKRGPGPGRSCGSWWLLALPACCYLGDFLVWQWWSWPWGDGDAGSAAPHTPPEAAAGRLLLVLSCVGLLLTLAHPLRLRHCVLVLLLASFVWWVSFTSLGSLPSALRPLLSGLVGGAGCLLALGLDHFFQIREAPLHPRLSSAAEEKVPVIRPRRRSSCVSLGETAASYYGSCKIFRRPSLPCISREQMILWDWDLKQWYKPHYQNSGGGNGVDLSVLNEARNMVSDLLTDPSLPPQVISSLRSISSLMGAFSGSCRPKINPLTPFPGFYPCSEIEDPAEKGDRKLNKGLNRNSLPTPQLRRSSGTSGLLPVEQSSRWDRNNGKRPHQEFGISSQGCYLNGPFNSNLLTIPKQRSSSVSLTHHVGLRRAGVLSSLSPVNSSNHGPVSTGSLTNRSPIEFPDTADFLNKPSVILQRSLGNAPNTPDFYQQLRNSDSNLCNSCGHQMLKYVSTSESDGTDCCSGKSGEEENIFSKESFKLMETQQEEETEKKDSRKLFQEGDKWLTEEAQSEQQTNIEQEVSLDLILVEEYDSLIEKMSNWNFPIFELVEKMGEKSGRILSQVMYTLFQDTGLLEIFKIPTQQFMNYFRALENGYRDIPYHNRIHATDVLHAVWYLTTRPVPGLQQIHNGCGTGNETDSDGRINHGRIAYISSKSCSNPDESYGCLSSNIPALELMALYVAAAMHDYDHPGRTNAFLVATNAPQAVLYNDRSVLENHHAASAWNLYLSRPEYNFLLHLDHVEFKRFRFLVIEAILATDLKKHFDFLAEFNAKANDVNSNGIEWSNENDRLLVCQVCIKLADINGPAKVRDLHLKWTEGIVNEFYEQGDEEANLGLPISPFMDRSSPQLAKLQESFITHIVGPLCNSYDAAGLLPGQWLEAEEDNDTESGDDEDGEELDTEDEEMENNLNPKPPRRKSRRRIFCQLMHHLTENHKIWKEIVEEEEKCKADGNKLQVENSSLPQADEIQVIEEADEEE
PDE3A, sequence (Q14432 whole entry): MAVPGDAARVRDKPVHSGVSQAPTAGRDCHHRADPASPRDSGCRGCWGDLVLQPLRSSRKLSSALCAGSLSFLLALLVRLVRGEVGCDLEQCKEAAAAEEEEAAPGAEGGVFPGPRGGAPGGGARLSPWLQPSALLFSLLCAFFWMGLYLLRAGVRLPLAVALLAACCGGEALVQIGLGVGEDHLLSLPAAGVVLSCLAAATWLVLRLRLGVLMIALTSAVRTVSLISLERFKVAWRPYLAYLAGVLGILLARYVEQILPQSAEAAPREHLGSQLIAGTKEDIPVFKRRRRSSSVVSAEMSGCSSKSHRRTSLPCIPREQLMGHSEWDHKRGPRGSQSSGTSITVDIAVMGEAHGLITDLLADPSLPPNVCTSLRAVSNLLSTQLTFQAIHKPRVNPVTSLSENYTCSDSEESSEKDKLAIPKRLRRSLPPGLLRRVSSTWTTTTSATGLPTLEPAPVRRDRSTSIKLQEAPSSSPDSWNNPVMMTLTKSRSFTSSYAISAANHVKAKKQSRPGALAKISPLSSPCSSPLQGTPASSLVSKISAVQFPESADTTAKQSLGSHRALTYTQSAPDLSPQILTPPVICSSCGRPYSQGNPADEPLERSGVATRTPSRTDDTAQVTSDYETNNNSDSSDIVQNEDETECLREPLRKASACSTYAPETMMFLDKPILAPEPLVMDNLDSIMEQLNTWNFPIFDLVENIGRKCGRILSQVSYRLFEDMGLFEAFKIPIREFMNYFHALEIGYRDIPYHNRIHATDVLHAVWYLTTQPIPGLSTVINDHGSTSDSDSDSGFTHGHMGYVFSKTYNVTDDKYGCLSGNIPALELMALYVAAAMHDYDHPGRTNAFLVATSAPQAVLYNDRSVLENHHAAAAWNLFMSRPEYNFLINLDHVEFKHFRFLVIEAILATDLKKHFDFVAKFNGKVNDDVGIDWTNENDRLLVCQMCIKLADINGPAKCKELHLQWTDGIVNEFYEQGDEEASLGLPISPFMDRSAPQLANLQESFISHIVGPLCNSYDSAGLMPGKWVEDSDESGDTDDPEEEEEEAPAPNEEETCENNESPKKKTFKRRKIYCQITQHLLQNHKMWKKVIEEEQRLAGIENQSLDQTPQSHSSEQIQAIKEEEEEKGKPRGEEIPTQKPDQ
PDE9A, sequence (O76083 whole entry): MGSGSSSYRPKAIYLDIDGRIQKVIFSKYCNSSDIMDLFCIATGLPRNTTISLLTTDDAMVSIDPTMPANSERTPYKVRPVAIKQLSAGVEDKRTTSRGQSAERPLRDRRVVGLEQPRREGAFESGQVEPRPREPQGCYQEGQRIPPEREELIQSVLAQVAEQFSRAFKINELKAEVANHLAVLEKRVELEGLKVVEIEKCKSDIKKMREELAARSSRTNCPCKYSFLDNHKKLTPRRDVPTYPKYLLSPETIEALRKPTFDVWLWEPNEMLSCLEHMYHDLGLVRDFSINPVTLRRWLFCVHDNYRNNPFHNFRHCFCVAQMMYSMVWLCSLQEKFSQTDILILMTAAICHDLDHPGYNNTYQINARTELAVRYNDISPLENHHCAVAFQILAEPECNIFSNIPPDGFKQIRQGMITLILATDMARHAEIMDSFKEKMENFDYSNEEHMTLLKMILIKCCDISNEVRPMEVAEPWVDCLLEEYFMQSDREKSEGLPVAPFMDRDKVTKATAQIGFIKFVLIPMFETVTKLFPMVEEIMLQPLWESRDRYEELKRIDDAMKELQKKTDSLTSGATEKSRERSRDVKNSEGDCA
PDE10A, sequence (Q9Y233 290-1055 limits assumed): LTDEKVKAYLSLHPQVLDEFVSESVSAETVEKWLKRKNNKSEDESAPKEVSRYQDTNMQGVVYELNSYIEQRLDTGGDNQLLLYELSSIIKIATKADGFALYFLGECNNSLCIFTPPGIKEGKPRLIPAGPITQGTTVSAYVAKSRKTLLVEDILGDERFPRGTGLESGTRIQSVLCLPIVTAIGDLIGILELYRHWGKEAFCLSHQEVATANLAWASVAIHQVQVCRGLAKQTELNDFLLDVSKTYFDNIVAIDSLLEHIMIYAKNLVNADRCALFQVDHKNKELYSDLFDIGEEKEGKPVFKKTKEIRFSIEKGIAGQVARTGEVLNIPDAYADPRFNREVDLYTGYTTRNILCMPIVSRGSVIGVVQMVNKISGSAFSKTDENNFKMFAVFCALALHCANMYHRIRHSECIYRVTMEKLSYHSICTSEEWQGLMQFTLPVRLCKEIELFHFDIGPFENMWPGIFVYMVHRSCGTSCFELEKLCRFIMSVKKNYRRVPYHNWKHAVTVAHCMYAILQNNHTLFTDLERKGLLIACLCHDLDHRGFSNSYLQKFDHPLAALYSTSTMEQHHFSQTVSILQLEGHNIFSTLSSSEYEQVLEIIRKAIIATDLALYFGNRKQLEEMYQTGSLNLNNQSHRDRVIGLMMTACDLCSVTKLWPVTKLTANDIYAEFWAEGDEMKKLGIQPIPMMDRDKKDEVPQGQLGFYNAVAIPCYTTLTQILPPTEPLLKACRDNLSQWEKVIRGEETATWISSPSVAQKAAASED

On to `CCN1C(=O)[C@@H]2Cc3c([nH]c4ccccc34)[C@@H](c3ccc(Br)cc3)N2C1=O` [Compound 8, (5R,11aS)-5-(4-Bromophenyl)-2-ethyl-5,6,11,11a-tetrahydro-1H-imidazo[1′,5′:1,6]pyrido[3,4-b]indole-1,3(2H)-dione], for which the pIC50 at human PDE5 [1] was 7.29; against PDE1A it was under 4.30; at PDE2A it was under 4.30; at PDE3A, under 4.30; against PDE3B, under 4.30; against PDE9A, under 4.30. Also, on human PDE5 [1], the inhibition at 10 µM was 101%. Also, the IC50 on PDE1A (substrate cGMP), at PDE2A (substrate cGMP), on PDE3A (substrate cGMP), at PDE3B (substrate cGMP), on PDE10A (setting [3]) and against PDE10A (setting [4]) was over 50 µM in each case. Moreover, the IC50 against PDE11A (setting [5]) was determined as 44 µM; against PDE11A (setting [6]) it was 35.7 µM. Besides, the “selectivity profile (selectivity index) PDE5 versus PDE11” value on PDE11A is 700.
Turning to `CN1CC(=O)N2[C@H](c3ccc(Br)cc3)c3[nH]c4ccccc4c3C[C@@H]2C1=O` [Compound 25, (6R,12aR)-6-(4-Bromophenyl)-2-methyl-2,3,6,7,12,12a-hexahydropyrazino [1′,2′:1,6]pyrido[3,4-b]indole-1,4-dione], the pIC50 against human PDE5 [1] is 7.72; at PDE1A, under 4.30; at PDE2A, under 4.30; against PDE3A it was under 4.30; against PDE3B, under 4.30; against PDE9A, under 4.30. At human PDE5 [1], the inhibition at 10 µM came out at 98%. Moreover, the IC50 at PDE1A (substrate cGMP) is over 50 µM; at PDE2A (substrate cGMP), over 50 µM; on PDE3A (substrate cGMP), over 50 µM; on PDE3B (substrate cGMP), over 50 µM; against PDE10A (setting [3]) it was over 50 µM; on PDE10A (setting [4]), 41.7 µM. Moreover, the IC50 was determined as 0.6 µM on PDE11A (setting [5]) and 0.27 µM at PDE11A (setting [6]). Besides, the “selectivity profile (selectivity index) PDE5 versus PDE11” value on PDE11A was 14.
For `CN1CC(=O)N2[C@H](c3ccc(Br)cc3)c3[nH]c4ccccc4c3C[C@H]2C1=O` [Compound 28, (6R,12aS)-6-(4-Bromophenyl)-2-methyl-2,3,6,7,12,12a-hexahydropyrazino [1′,2′:1,6]pyrido[3,4-b]indole-1,4-dione], the pIC50 at human PDE5 [1] is 7.92; against PDE1A it was under 4.30; on PDE2A it was under 4.30; against PDE3A, under 4.30; at PDE3B it was under 4.30; on PDE9A, under 4.30. In addition, the inhibition at 10 µM at human PDE5 [1] is 91%. Moreover, the IC50 at PDE1A (substrate cGMP), at PDE2A (substrate cGMP), at PDE3A (substrate cGMP), at PDE3B (substrate cGMP), at PDE10A (setting [3]) and against PDE10A (setting [4]) was over 50 µM in each case. Besides, the half-inhibitory concentration (IC50) against PDE11A (setting [5]) was determined as 1.3 µM; against PDE11A (setting [6]) it was 1.13 µM. The “selectivity profile (selectivity index) PDE5 versus PDE11” value at PDE11A stood at 94.
For `CCN1CC(=O)N2[C@H](c3ccc(Br)cc3)c3[nH]c4ccccc4c3C[C@@H]2C1=O` [Compound 29, (6R,12aR)-2-Ethyl-6-(4-bromophenyl)-2,3,6,7,12,12a-hexahydropyrazino [1′,2′:1,6]pyrido[3,4-b]indole-1,4-dione], the pIC50 was 8.52 at human PDE5 [1]; under 4.30 against PDE1A; under 4.30 at PDE2A; under 4.30 on PDE3A; under 4.30 against PDE3B; under 4.30 at PDE9A. Moreover, at human PDE5 [1] (PDE5 IC50, 29 versus 5), the “times improved activity compared to five member congener 5” value was found to be 1000 times. Further, at human PDE5 [1], the inhibition at 10 µM came out at 96%. Besides, the IC50 at PDE1A (substrate cGMP) is over 50 µM; on PDE2A (substrate cGMP), over 50 µM; on PDE3A (substrate cGMP) it was over 50 µM; at PDE3B (substrate cGMP), over 50 µM; at PDE10A (setting [3]), 26.1 µM; against PDE10A (setting [4]), 14.7 µM. Moreover, the IC50 is 0.3 µM against PDE11A (setting [5]) and 0.27 µM at PDE11A (setting [6]). Besides, the “selectivity profile (selectivity index) PDE5 versus PDE11” value on PDE11A is 90.
As for `CCCCN1CC(=O)N2[C@H](c3ccc(Br)cc3)c3[nH]c4ccccc4c3C[C@@H]2C1=O` [Compound 33], the “% PDE5 inhibition at 10 μM” value on human PDE5 [1] (10 μM, triplicate) stood at 87%. For the same compound, the IC50 is 0.009 µM at human PDE5 [1] (read-out: IC50 μM (PDE5), 8 concentrations 1 nM–10 μM); 0.009 µM on human PDE5 [1] (read-out: PDE5A inhibition IC50 μM, substrate cAMP (as printed in sub-head)); over 50 µM at PDE1A (substrate cAMP); over 50 µM at PDE1A (substrate cGMP); over 50 µM at PDE2A (substrate cAMP); over 50 µM at PDE2A (substrate cGMP). In addition, the IC50 at PDE3A (substrate cAMP) is over 50 µM; on PDE3A (substrate cGMP) it was over 50 µM; at PDE3B (substrate cAMP), over 50 µM; at PDE3B (substrate cGMP), over 50 µM; on PDE9A (read-out: PDE9A inhibition IC50 μM, substrate cGMP), over 50 µM; on PDE10A (read-out: PDE10A inhibition IC50 μM, substrate cAMP), over 50 µM. In addition, the IC50 on PDE10A (read-out: PDE10A inhibition IC50 μM, substrate cGMP) is over 50 µM; at PDE11A (read-out: PDE11A inhibition IC50 μM, substrate cAMP), 1.2 µM; on PDE11A (read-out: PDE11A inhibition IC50 μM, substrate cGMP) it was 0.6 µM. Also, the “selectivity profile (selectivity index) PDE5 versus PDE11” value on PDE11A is 67.
On to `CC(C)(C)N1CC(=O)N2[C@H](c3ccc(Br)cc3)c3[nH]c4ccccc4c3C[C@@H]2C1=O` [Compound 37, (6R,12aR)-6-(4-Bromophenyl)-2-tert-butyl-2,3,6,7,12,12a-hexahydropyrazino [1′,2′:1,6]pyrido[3,4-b]indole-1,4-dione], for which, at human PDE5 [1], the pIC50 is under 5.00 and the inhibition at 10 µM turned out to be 30%.
Take `CC(C)(C)N1CC(=O)N2[C@@H](c3ccc(Br)cc3)c3[nH]c4ccccc4c3C[C@@H]2C1=O` [Compound 38, (6S,12aR)-6-(4-Bromophenyl)-2-tert-butyl-2,3,6,7,12,12a-hexahydropyrazino [1′,2′:1,6]pyrido[3,4-b]indole-1,4-dione]: the inhibition at 10 µM at human PDE5 [1] was 27%.
For the compound `CC(C)(C)N1CC(=O)N2[C@@H](c3ccc(Br)cc3)c3[nH]c4ccccc4c3C[C@H]2C1=O` [Compound 39, (6S,12aS)-6-(4-Bromophenyl)-2-tert-butyl-2,3,6,7,12,12a-hexahydropyrazino[1′,2′:1,6]pyrido[3,4-b]indole-1,4-dione], on human PDE5 [1], the inhibition at 10 µM was found to be 12%.
As to `CC(C)(C)N1CC(=O)N2[C@H](c3ccc(Br)cc3)c3[nH]c4ccccc4c3C[C@H]2C1=O` [Compound 40, (6R,12aS)-6-(4-Bromophenyl)-2-tert-butyl-2,3,6,7,12,12a-hexahydropyrazino[1′,2′:1,6]pyrido[3,4-b]indole-1,4-dione], on human PDE5 [1], the inhibition at 10 µM was 21%.
As to `CN1CC(=O)N2[C@H](c3ccc4c(c3)OCO4)c3[nH]c4ccccc4c3C[C@@H]2C1=O` [Compound I, tadalafil, reference compound], the pIC50 against PDE1A, against PDE2A, against PDE3A, on PDE3B and against PDE9A was under 4.30 throughout. For the same compound, the IC50 at PDE1A (substrate cGMP), on PDE2A (substrate cGMP), on PDE3A (substrate cGMP), on PDE3B (substrate cGMP), at PDE10A (setting [3]) and against PDE10A (setting [4]) was over 50 µM each time. For the same compound, on human PDE5 [2], the “% PDE5 inhibition at 10 μM” value is on record as 100%.
